Test [1] deals with SSTR2 (Homo sapiens, UniProt P30874, Q126A). Nature of the test: cAMP accumulation assay (agonist-induced inhibition of forskolin-stimulated cAMP), SSTR2, HEK293F.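 Note: transiently transfected cells exposed to 2 µM forskolin and a ligand concentration series for 40 min at room temperature in IBMX-containing HBSS, then cAMP quantified.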 The class given is cell-based. Set-up: expressed in transfected cells; host or cells: HEK293F. The settings on record: SSTR2 mutant Q126^3.36A; mean ± SEM. On the technique in general: Changes in cAMP serve as a functional read-out for many G protein-coupled receptors.
Description: (§1) HEK293F cells were transiently transfected with WT or mutant SSTR2/SSTR4 using transfection reagent (PEI MAX 2000, Polysciences) and incubated at 37 °C in 5% CO2. Forty-eight hours after transfection, cells were centrifuged and resuspended in stimulation buffer (Hanks’ balanced salt solution (HBSS) supplemented with 5 mM HEPES, 0.5 mM IBMX and 0.1% (w/v) bovine serum albumin (BSA), pH 7.4) to a density of 200,000 cells/mL and added to 384-well white plates (PerkinElmer, 1000 cells/well). cAMP accumulation was measured by a LANCE Ultra cAMP kit (PerkinElmer) according to the manufacturer’s instructions. In brief, transfected cells were incubated for 40 min in stimulation buffer with 2.5 μL forskolin (SSTR2: 2 μM; SSTR4: 4 μM) and gradient concentration of ligand at RT. The reactions were stopped by addition of lysis buffer containing 5 μL Eu-cAMP tracer and 5 μL ULight-anti-cAMP. Plates were then incubated for 60 min at RT and time-resolved FRET signals were measured at 620 nm and 665 nm by an EnVision multilabel plate reader (PerkinElmer). Data were analyzed in GraphPad PRISM 8 and all values were normalized to the WT for each ligand. All outcomes were repeated at least three times.
(§2) aMutants represent that mutations were introduced separately into the WT receptors and
(§3) transiently expressed in HEK 293F cells.
(§4) bThe EC50 ratio was shown as EC50(mutant)/EC50(WT), indicating the shift between the WT
(§5) and mutant curves, reflecting the effect of the mutations on receptor signaling.
(§6) cData are shown as mean ± S.E.M. from at least three independent experiments
(§7) performed in technical triplicate. One-way ANOVA was performed followed by
(§8) Dunnett’s post-test and compared with WT. The P value was defined as: *P<0.05;
(§9) d The span is defined as the window between the maximal agonists response (Emax) and
(§10) e Sample size; the number of independent experiments performed in technical triplicate.
(§11) f Receptor expression level of HEK 293F cells was determined independently by flow
(§12) cytometry with anti-FLAG antibody and shown as per cent compared to the WT.

In test [2] the test system is SSTR4. Nature of the test: Whole cell binding assay, SSTR4, competition with 125I-Tyr11-SST14, CHO-K1. Also noted: species or system human. The following applies: IC50(mutant)/IC50(WT).
Description: (§13) For SSTR2 and SSTR4, CHO-K1 cells were cultured in F12 medium with 10% FBS and seeded at a density of 30,000 cells/well in Isoplate-96 plates (PerkinElmer). Twenty-four hours after transfection with the WT or mutant SSTR2/SSTR4, CHO-K1 cells were washed twice and incubated with blocking buffer (F12 supplemented with 25 mM HEPES and 0.1% (w/v) BSA, pH 7.4) for 2 h at 37 °C. […] Following incubation, cells were washed three times with ice-cold PBS and lysed by 50 μL lysis buffer (PBS supplemented with 20 mM Tris-HCl, 1% Triton X-100, pH 7.4). The radioactivity was subsequently counted (counts/min, CPM) in a scintillation counter (MicroBeta[2] Plate Counter, PerkinElmer) using a scintillation cocktail (OptiPhaseSuperMix, PerkinElmer). Data were analyzed by nonlinear regression using GraphPad PRISM 8.
(§14) aMutants represent that all mutations were introduced separately into the WT receptors
and expressed in CHO K1 cells.
(§15) bThe IC50 ratio was shown as IC50(mutant)/IC50(WT), indicating the shift between the WT
(§16) and mutant curves, reflecting the effect of the mutations on ligand binding.
(§17) cData are shown as mean ± S.E.M. form at least three independent experiments
as §7
(§18) Dunnett’s post-test and compared with WT.
as §9, §10
The target of test [3] is T1, SSTR4 (Homo sapiens, UniProt P31391). The test is described as above. The following applies: WT SSTR4, mean ± SEM. Also noted: expressed in transfected cells.
Description: as §13, §14
and expressed in CHO K1 cells.
as §15, §16, §17, §7, §18, §9, §10
In test [4] the target is T2, SSTR4 (Homo sapiens, UniProt P31391, D126A). The description is as above. Set-up: expressed in transfected cells. The settings on record: SSTR4 mutant D126^3.32A; mean ± SEM.
Description: as §13, §14
and expressed in CHO K1 cells.
as §15, §16, §17, §7, §18, §9, §10
Test [5] addresses T3, SSTR4 (Homo sapiens, UniProt P31391, F275A). The test is described as above. Also noted: expressed in transfected cells. The following applies: SSTR4 mutant F275^6.51A; mean ± SEM.
Description: as §13, §14
and expressed in CHO K1 cells.
as §15, §16, §17, §7, §18, §9, §10
Test [6] has as its target T4, SSTR4 (Homo sapiens, UniProt P31391, M130A). The description is as above. Set-up: expressed in transfected cells. The settings on record: SSTR4 mutant M130^3.36A; mean ± SEM.
Description: as §13, §14
and expressed in CHO K1 cells.
as §15, §16, §17, §7, §18, §9, §10
Test [7] deals with T5, SSTR4 (Homo sapiens, UniProt P31391, N199A). The description is as above. Set-up: expressed in transfected cells. The settings on record: SSTR4 mutant N199^ECL2A; mean ± SEM.
Description: as §13, §14
and expressed in CHO K1 cells.
as §15, §16, §17, §7, §18, §9, §10
Test [8] deals with T6, SSTR4 (Homo sapiens, UniProt P31391, Q279A). The test is described as above. The settings on record: SSTR4 mutant Q279^6.55A; mean ± SEM. Also noted: expressed in transfected cells.
Description: as §13, §14
and expressed in CHO K1 cells.
as §15, §16, §17, §7, §18, §9, §10
Test [9] concerns the target T7, SSTR4 (Homo sapiens, UniProt P31391, T215A). Described as above. Also noted: expressed in transfected cells. The settings on record: SSTR4 mutant T215^5.42A; mean ± SEM.
Description: as §13, §14
and expressed in CHO K1 cells.
as §15, §16, §17, §7, §18, §9, §10
Test [10] deals with T8, SSTR4 (Homo sapiens, UniProt P31391, V264F). The description is as above. Set-up: expressed in transfected cells. The following applies: Construct 4 SSTR4, mean ± SEM.
Description: as §13, §14
and expressed in CHO K1 cells.
as §15, §16, §17, §7, §18, §9, §10
The target of test [11] is T9, SSTR4 (Homo sapiens, UniProt P31391, Y276A). The description is as above. Set-up: expressed in transfected cells. The following applies: SSTR4 mutant Y276^6.52A; mean ± SEM.
Description: as §13, §14
and expressed in CHO K1 cells.
as §15, §16, §17, §7, §18, §9, §10
For test [12], the target named is T10, SSTR4 (Homo sapiens, UniProt P31391, Y301A). The description is as above. Also noted: expressed in transfected cells. The settings on record: SSTR4 mutant Y301^7.43A; mean ± SEM.
Description: as §13, §14
and expressed in CHO K1 cells.
as §15, §16, §17, §7, §18, §9, §10
Test [13] deals with T1, SSTR4. Nature of the test: cAMP accumulation assay (agonist-induced inhibition of forskolin-stimulated cAMP), SSTR4, HEK293F.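 Note: transiently transfected cells incubated 40 min at room temperature with 4 µM forskolin and graded ligand, cAMP read by LANCE Ultra TR-FRET kit, values normalized to WT receptor per ligand.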 The class given is cell-based. Also noted: expressed in transfected cells; host or cells: HEK293F. The following applies: WT SSTR4, mean ± SEM.
Description: as §1, §2, §3, §4, §5, §6, §7, §8, §9, §10, §11, §12
Test [14] deals with T2, SSTR4. The description is as above. The class given is cell-based. The settings on record: SSTR4 mutant D126^3.32A; mean ± SEM. Set-up: expressed in transfected cells; host or cells: HEK293F.
Description: as §1, §2, §3, §4, §5, §6, §7, §8, §9, §10, §11, §12
For test [15], the target named is T3, SSTR4. Described as above. The class given is cell-based. Also noted: expressed in transfected cells; host or cells: HEK293F. The settings on record: SSTR4 mutant F275^6.51A; mean ± SEM.
Description: as §1, §2, §3, §4, §5, §6, §7, §8, §9, §10, §11, §12
Test [16] deals with T4, SSTR4. The description is as above. It counts as cell-based. The following applies: SSTR4 mutant M130^3.36A; mean ± SEM. Set-up: expressed in transfected cells; host or cells: HEK293F.
Description: as §1, §2, §3, §4, §5, §6, §7, §8, §9, §10, §11, §12
For test [17], the target named is T5, SSTR4. Described as above. It counts as cell-based. Set-up: expressed in transfected cells; host or cells: HEK293F. The following applies: SSTR4 mutant N199^ECL2A; mean ± SEM.
Description: as §1, §2, §3, §4, §5, §6, §7, §8, §9, §10, §11, §12
Test [18] concerns the target T6, SSTR4. Described as above. It counts as cell-based. The settings on record: SSTR4 mutant Q279^6.55A; mean ± SEM. Set-up: expressed in transfected cells; host or cells: HEK293F.
Description: as §1, §2, §3, §4, §5, §6, §7, §8, §9, §10, §11, §12
The target of test [19] is T7, SSTR4. The description is as above. The class given is cell-based. Also noted: expressed in transfected cells; host or cells: HEK293F. The settings on record: SSTR4 mutant T215^5.42A; mean ± SEM.
Description: as §1, §2, §3, §4, §5, §6, §7, §8, §9, §10, §11, §12
For test [20], the target named is T8, SSTR4. The description is as above. It counts as cell-based. Also noted: expressed in transfected cells; host or cells: HEK293F.
Description: as §1, §2, §3, §4, §5, §6, §7, §8, §9, §10, §11, §12
For test [21], the target named is T9, SSTR4. Described as above. It counts as cell-based. Also noted: expressed in transfected cells; host or cells: HEK293F. The settings on record: SSTR4 mutant Y276^6.52A; mean ± SEM.
Description: as §1, §2, §3, §4, §5, §6, §7, §8, §9, §10, §11, §12
The target of test [22] is T10, SSTR4. The description is as above. The class given is cell-based. Set-up: expressed in transfected cells; host or cells: HEK293F. The settings on record: SSTR4 mutant Y301^7.43A; mean ± SEM.
Description: as §1, §2, §3, §4, §5, §6, §7, §8, §9, §10, §11, §12

Molecules are shown by their SMILES.

T6 sequence (P31391 whole entry Q279A): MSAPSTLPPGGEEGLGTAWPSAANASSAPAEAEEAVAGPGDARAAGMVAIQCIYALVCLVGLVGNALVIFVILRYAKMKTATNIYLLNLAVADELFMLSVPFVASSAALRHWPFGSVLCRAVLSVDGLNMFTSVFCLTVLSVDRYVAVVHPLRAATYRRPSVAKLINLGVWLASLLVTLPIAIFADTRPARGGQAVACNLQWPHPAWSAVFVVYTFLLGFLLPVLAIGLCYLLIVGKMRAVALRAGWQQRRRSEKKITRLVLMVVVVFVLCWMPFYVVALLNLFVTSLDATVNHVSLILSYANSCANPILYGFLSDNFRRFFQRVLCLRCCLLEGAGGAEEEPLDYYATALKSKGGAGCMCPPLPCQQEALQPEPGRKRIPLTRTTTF
T9 sequence (P31391 whole entry Y276A): as the sequence (P31391 whole entry Q279A) above, with Y276A, A279Q counted along it
T1 sequence (P31391 whole entry): as the sequence (P31391 whole entry Q279A) above, with A279Q counted along it
T10 sequence (P31391 whole entry Y301A): as the sequence (P31391 whole entry Q279A) above, with A279Q, Y301A counted along it
T7 sequence (P31391 whole entry T215A): as the sequence (P31391 whole entry Q279A) above, with T215A, A279Q counted along it
T4 sequence (P31391 whole entry M130A): as the sequence (P31391 whole entry Q279A) above, with M130A, A279Q counted along it
T8 sequence (P31391 1-328 V264F): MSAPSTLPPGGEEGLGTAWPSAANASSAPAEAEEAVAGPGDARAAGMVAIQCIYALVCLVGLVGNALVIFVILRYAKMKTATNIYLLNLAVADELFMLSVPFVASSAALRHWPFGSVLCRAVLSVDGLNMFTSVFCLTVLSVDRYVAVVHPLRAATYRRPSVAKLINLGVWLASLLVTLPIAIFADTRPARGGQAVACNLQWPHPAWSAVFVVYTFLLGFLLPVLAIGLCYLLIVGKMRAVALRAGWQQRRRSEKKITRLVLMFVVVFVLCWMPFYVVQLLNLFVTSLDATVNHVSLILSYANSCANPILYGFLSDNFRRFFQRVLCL
T5 sequence (P31391 whole entry N199A): as the sequence (P31391 whole entry Q279A) above, with N199A, A279Q counted along it
Chain of SSTR2 (P30874 whole entry Q126A): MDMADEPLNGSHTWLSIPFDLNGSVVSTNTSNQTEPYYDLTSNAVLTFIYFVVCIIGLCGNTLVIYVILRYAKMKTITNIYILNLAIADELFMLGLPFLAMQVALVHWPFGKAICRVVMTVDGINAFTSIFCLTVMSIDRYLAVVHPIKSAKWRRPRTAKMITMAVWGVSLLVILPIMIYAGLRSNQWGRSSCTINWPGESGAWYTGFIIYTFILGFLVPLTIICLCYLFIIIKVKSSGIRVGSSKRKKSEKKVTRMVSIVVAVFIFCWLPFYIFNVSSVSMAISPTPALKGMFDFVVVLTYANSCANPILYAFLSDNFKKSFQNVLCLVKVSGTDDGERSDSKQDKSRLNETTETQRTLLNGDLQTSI
T2 sequence (P31391 whole entry D126A): as the sequence (P31391 whole entry Q279A) above, with D126A, A279Q counted along it
T3 sequence (P31391 whole entry F275A): as the sequence (P31391 whole entry Q279A) above, with F275A, A279Q counted along it

Consider `C[C@@H](c1c[nH]c2ccccc12)[C@@H](NC(=O)N1CCC(n2c(=O)[nH]c3ccccc32)CC1)C(=O)N[C@@H](CCCCN)C(=O)OC(C)(C)C` [L-054,522], for which, in test [1], the Span was 82±6 % of WT and the “pEC50 ± SEM” value is reported as 9.18±0.17.

In the case of `Cc1ccc(S(=O)(=O)N[C@@H](CCN)C(=O)N[C@@H](Cc2ccccc2)C(N)=O)c2ccccc12` [J-2156], the IC50 ratio in test [2] (Construct 4 SSTR4) stood at 0.5; in [2] (SSTR4 mutant Q279^6.55A) it was 2; in [2] (SSTR4 mutant T215^5.42A), 1; in [2] (WT SSTR4) it was 1. The “pKi ± SEM” value was determined as 9.21 ± 0.14 in test [3] (competition with 125I-SST-14) and 9.47 in test [10] (competition with 125I-SST-14). Moreover, the Span in [3] is listed as 100±6 % of WT; in test [4], 12±3 % of WT; in [5], 11 ± 4 % of WT; in test [6], 12±4 % of WT; in test [7] it was 13±3 % of WT; in [8] it was 26±4 % of WT. Also, the Span is 67±4 % of WT in [9]; 96±9 % of WT in [10]; 9±3 % of WT in test [11]; 15±5 % of WT in test [12]; 100±3 % of WT in [13] (window between Emax and vehicle); 23±28 % of WT in test [14]. Besides, the Span in test [15] is 22±7 % of WT; in test [16], 78±6 % of WT; in [17], 88±5 % of WT; in test [18], 98±6 % of WT; in test [19], 92±5 % of WT; in [20] (Construct 4 SSTR4, mean ± SEM), 106±5 % of WT. Further, the Span in [21] was 106±6 % of WT; in test [22], 64±7 % of WT. The “pIC50 ± SEM” value in test [3] (at least three independent experiments) is 9.21±0.14; in [8] it was 8.93±0.38; in test [9] it was 9.08±0.16; in test [10] it was 9.47±0.25. The “pEC50 ± SEM” value was 9.73±0.08 in test [13] (HEK293F, at least three independent experiments); 9.12±0.19 in test [16]; 10.23±0.14 in test [17]; 9.57±0.17 in [18]; 9.85±0.14 in test [19]; 10.46±0.13 in [20] (Construct 4 SSTR4, mean ± SEM). Moreover, the results for the “pEC50 ± SEM” value in test [21] and in test [22] were 6.71±0.08 and 7.02±019, respectively. Further, it took 0.03 nM to reach a half-maximal effect in [20] (Construct 4 SSTR4 (V264F, C-terminal truncation)) (EC50).
